Measurements taken from PMC9643456, “Matching amino acids membrane preference profile to improve activity of antimicrobial peptides” (Communications Biology, 2022).
Square brackets hold non-standard residues; d marks the D form. Ends that are not written are not given here. Peptide text beside a SMILES is read from it.

Key:
DMPC:DMPG liposomes = test: Isothermal titration calorimetry, peptide-liposome interaction; type: binding; conditions: ITC, PBS, 37 °C
Description: Liposomes were prepared using 1,2-dimyristoyl-sn-glycero-3-(phospho-rac-(1-glycerol)) (sodium salt) (DMPG) (Avanti, Alabama, USA); 1,2-dimyristoyl-sn-glycero-3-phosphocholine (DMPC) (Avanti); and cholesterol (Sigma, Darmstadt, Germany) were used. Bacterial membrane mimic DMPC/DMPG (7/3) unilamellar vesicles (LUVs), and mammalian membrane mimic DMPC/cholesterol (10/1) vesicles with 100-nm diameters were prepared using the freeze-thaw and extrusion method. Lipids were mixed and dissolved in methanol in round-bottomed flasks then evaporated and freeze-dried overnight, yielding a thin layer of lipid covering the glass wall. PBS was added to the lipid layer, after which the PBS-lipid layer was vortexed then frozen in liquid nitrogen and thawed in 50 °C water repeatedly until no visible layer remained. LiposoFast Liposome Factory Basic unit with stabilizer (Avestin, Ottawa, Canada) was then used to extrude the liposomes 50 times through a polycarbonate membrane filter (pore diameter, 100 nm; filter diameter, 0.75 inches) (Avestin). For circular dichroism, isothermal titration calorimetry, tryptophan fluorescence, and dynamic light scattering experiments, liposomes were reconstructed and resuspended in PBS (Welgene Inc, Gyeongsangbuk-do, Korea).
PC/PG liposome stock solutions and peptide solutions were diluted in PBS and degassed for 30 min. Peptide solutions (2 ml, 40 μM) were then loaded into a VP-ITC MicroCalorimeter (MicroCal, Northampton, USA). Liposome samples (600 μl, 2000 μM) were injected into the VP-ITC using a syringe. Measurement parameters were as follows: cell temperature, 37 °C; total injections, 30; reference power, 10; initial delay, 300; stirring speed, 300; edit mode, 10.0/12.0/200/2. Liposome solution (10 μl) was injected into the peptide solution 30 times. Each experiment was performed in duplicate. The results were calculated using MicroCal analysis.

[1] = Maximum soluble concentration / turbidity; type: physicochemical; conditions: for Maximum soluble concentration in PBS: lyophilized peptide reconstructed in PBS at 200-6.25 μM, visible turbidity checked every 12 h for 5 days, at least twice
Description: Supplementary Methods Bacteria preparation, Antimicrobial peptides preparation, Minimal-inhibitory-concentration measurements, Hemolysis-activity measurements, Tryptophan fluorescence measurements, Isothermal titration calorimetry measurements, Bacteria membrane ion permeation measurements, Outer-inner membrane permeation, Field-emission scanning electron microscopy and Antimicrobial kinetics were performed as described in Materials and Methods. Liposome (LUV) preparation. Bacterial-membrane-mimic DMPC/DMPG unilamellar vesicles (LUV) and mammalian- membrane-mimic PC/cholesterol vesicles with 100-nm diameters were prepared by extrusion. LiposoFast Liposome Factory Basic unit with stabilizer (Avestin, Ottawa, Canada) was used to extrude liposomes 50 times through a polycarbonate membrane filter (pore diameter, 100 nm; filter diameter, 0.75 inches) (Avestin). […] rac-(1-glycerol)) (sodium salt) (DMPG) (Avanti, Alabama, USA); 1,2-Dimyristoyl-sn-glycero-3-phosphocholine (DMPC) (Avanti); and cholesterol (Sigma, Darmstadt, Germany) were used. For circular dichroism, isothermal titration calorimetry, tryptophan fluorescence, and dynamic light scattering experiments, liposomes were reconstructed and resuspendedwith phosphate-buffered saline (PBS; Welgene Inc, Gyeongsangbuk-do, Korea). For calcein-permeation tests, liposomes were reconstructed with calcein solutions (80 mM, 40 mM, 30 mM, 20 mM, and 10 mM) (Sigma, Darmstadt, Germany), purified with Sephadex-G50 columns (Pharmacia biotech, Stockholm, Sweden), and resuspended with PBS. Maximum-soluble -concentration measurements. […] turbidity with PBS. The lowest concentration of peptide without visible turbidity was determined to be the maximu m soluble concentration. Each experiment was performed at least twice. Circular dichroism (CD) spectrum. DMPC/PG -liposome, PC/cholesterol -liposome, and peptide stock solutions were diluted in PBS. For circular dichroism, PBS with neither liposome nor peptides was also prepared. Liposomes and peptides were mixed to […] Samples were transferred into type J/1 cuvettes (Jasco, Tokyo, Japan). Cuvettes were placed into the J -815 circular -dichroism spectrometer (Jasco, Tokyo, Japan). Measurement parameters were as follows: wavelength, 190 -260 nm; data pitch, 0.2 nm; bandwidth, 1.00 nm; […] Each experiment was performed in triplicate. Data below 197 nm was not analyzed because o f experimental difficulties in obtaining those spectra. Each experiment was performed at least twice. Artificial membrane calcein permeation measurements. Calcein fluorescence was used to measure peptide -induced liposome permeation. Calcein solutions (10 mM, 20 mM, or 60 mM) containing PC/PG liposomes and peptides were diluted in PBS ( ×1, ×2, ×3, ×8). […] Liposome solutions (180 μl) were transferred to wells of black, clear -bottomed 96 -well plates (Costar, New York, USA). Peptide […] Liposome-containing plates and peptide -containing plates were inserted into a Flexstation 3 Multi -Mode Microplate Reader (Molecular Devices, California, USA). Peptide solutions (20 μl) were transferred and mixed with liposome solution automatical ly after 30 sec. […] Measurement parameters were as follows: excitation, 490 nm; emission, 520 nm; temperature, 37 °C. […] was transferred and mixed with the liposome -peptide solu tions automatically after 300 sec to acquire fluorescence at maximum leakage. […] Fluorescence measured between 0 -300 sec after addition of 0 μg/ml peptide was considered the baseline. Each experiment was performed at least twice. Dynamic light scattering (DLS) measurements. Dynamic light scattering was used to measure peptide -induced liposome volume changes. PC/PG -liposome stock solutions and peptides were resuspended in PBS. Liposomes and peptides were mixed to […]

human red blood cells = test: Hemolytic activity; type: cell-based
In short: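 Haemolysis was read as A540 of cleared supernatants after 18 h at 37 °C, with 0% and 100% lysis set by peptide-free PBS and 1% Triton X-100 and melittin as positive control. Human RBCs were at 4% final, peptide serially diluted 100–0.78 μM; three replicates.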

| Molecule | ΔS (DMPC:DMPG liposomes; run shown in Fig. 2a or run not numbered) | Maximum soluble concentration in PBS [1] | Hemolysis percent, 25 μM (human red blood cells; red cells of human, 18 h, 25) | Hemolysis percent, 50 μM (human red blood cells; red cells of human, 18 h, 50) | Hemolysis percent, 100 μM (human red blood cells; red cells of human, 18 h, 100) | Turbidity in PBS ([1]; 10 mg/ml peptide in PBS) | Hemolysis percent, 25 μM (human red blood cells; peptide 25 μM, 8% human red blood cells in PBS (final 4%), 18 h 37 °C, absorbance 540 nm, 1% Triton X-100 = 100%, triplicate) | Hemolysis percent, 50 μM (human red blood cells; peptide 50 μM, 8% human red blood cells in PBS (final 4%), 18 h 37 °C, absorbance 540 nm, 1% Triton X-100 = 100%, triplicate) | Hemolysis percent, 100 μM (human red blood cells; peptide 100 μM, 8% human red blood cells in PBS (final 4%), 18 h 37 °C, absorbance 540 nm, 1% Triton X-100 = 100%, triplicate) | ΔS (DMPC:DMPG liposomes; 2nd run) | ΔS (DMPC:DMPG liposomes; 1st run) |
| --- | --- | --- | --- | --- | --- | --- | --- | --- | --- | --- | --- |
| CC[C@@H](C)[C@@H](NC(=O)[C@@H](Cc1c[nH]c2ccccc12)NC(=O)[C@H](NC(=O)[C@@H](CC(C)C)NC(=O)[C@H](N)Cc1c[nH]c2ccccc12)C(C)C)C(=O)N[C@H](Cc1c[nH]c2ccccc12)C(=O)N[C@H](CCCNC(=N)N)C(=O)N[C@H](CCCNC(=N)N)C(=O)N[C@H](CCCNC(=N)N)C(N)=O [WCopW29] (H-[dW][dL][dV][dW][dI][dW][dR][dR][dR]-NH2) | 18.2 cal/mol deg | > 200 µM |  |  |  |  |  |  |  |  |  |
| CC[C@@H](C)[C@@H](NC(=O)[C@@H](Cc1c[nH]c2ccccc12)NC(=O)[C@@H](CCCNC(=N)N)NC(=O)[C@@H](CCCNC(=N)N)NC(=O)[C@H](N)CCCNC(=N)N)C(=O)N[C@H](Cc1c[nH]c2ccccc12)C(=O)N[C@@H](C(=O)N[C@@H](C(=O)N[C@H](Cc1c[nH]c2ccccc12)C(=O)N[C@H](CCCCN)C(N)=O)[C@H](C)CC)C(C)C [WCopW43] (H-[dR][dR][dR][dW][dI][dW][dV][dI][dW][dK]-NH2) |  |  | 1.12 ± 0.20% | 2.22 ± 0.67% | 5.02 ±0.63% | turbid |  |  |  |  |  |
| Colistin |  |  |  |  |  |  | 0.24 ±0.09% | 0.31% | 0.39 ±0.06% |  |  |
| RLWWRWIVR-NH2 [HLWCopW29-4] |  | > 200 µM | 1.02 ±0.01% | 1.08 ±0.04% | 2.47 ±0.03% |  |  |  |  | -23.6 cal/moldeg |  |
| WLVWIWRRR-NH2 [LWCopW29] |  | > 200 µM | 0.84 ±0.06% | 5.15 ±0.15% | 13.65 ±0.74% |  |  |  |  | 19.4 cal/moldeg | 19.4 cal/moldeg |
